Reference: patent US20240034649A1, “METHODS FOR ERADICATING BIOFILMS FROM PLUMBING SYSTEMS” (GORDON & ROSENBLATT, LLC, priority 2014, published 2024)

Legend:
[1] = at STP; cited from earlier work
Biofilm = settings: shock dose 50-80 mg/mL over 8 hours, acidic conditions, outlets flushed approx. 1 hour; cited from earlier work
[2] = test system: Pseudomonas aeruginosa biofilms; experiment: Minimal Biofilm Eradication Concentration (MBEC) assay, Calgary biofilm device; format: cell-based; settings: 22-25° C
Legionella = settings: cited from earlier work

Compound | solubility in water relative to chlorine [1] | bacteria recovered from showerheads after treatment (Biofilm) [cfu/ml] | Log10 reduction ([2]; CD 3.12 ppm, pH 6.5, 30 min) [CFU/mm^2] | Log10 reduction ([2]; CD 3.12 ppm, pH 7.5, 30 min) [CFU/mm^2] | Log10 reduction ([2]; CD 6.25 ppm, pH 6.5, 30 min) [CFU/mm^2] | Log10 reduction ([2]; CD 6.25 ppm, pH 7.5, 30 min) [CFU/mm^2] | Log10 reduction ([2]; CD 12.5 ppm, pH 6.5, 30 min) [CFU/mm^2] | Log10 reduction ([2]; CD 12.5 ppm, pH 7.5, 30 min) [CFU/mm^2] | Log10 reduction ([2]; CD 50.0 ppm, pH 6.5, 30 min) | Log10 reduction ([2]; CD 50.0 ppm, pH 7.5, 30 min) | time needed to achieve significant reduction in Legionella positivity (Legionella) [months] | Log10 reduction ([2]; Bleach 3.15 ppm, pH 6.5, 30 min) [CFU/mm^2] | Log10 reduction ([2]; Bleach 3.15 ppm, pH 7.5, 30 min) [CFU/mm^2] | Log10 reduction ([2]; Bleach 6.31 ppm, pH 6.5, 30 min) | Log10 reduction ([2]; Bleach 6.31 ppm, pH 7.5, 30 min) [CFU/mm^2] | Log10 reduction ([2]; Bleach 12.6 ppm, pH 6.5, 30 min) | Log10 reduction ([2]; Bleach 12.6 ppm, pH 7.5, 30 min) [CFU/mm^2] | Log10 reduction ([2]; Bleach 50.5 ppm, pH 6.5, 30 min) | Log10 reduction ([2]; Bleach 50.5 ppm, pH 7.5, 30 min)
chlorine dioxide [CD] | approximately 10 times | > 3000 | 0.82 | 1.63 | 2.56 | 2.38 | 2.34 | 2.49 | Total inhibition | total inhibition | > 12 | – | – | – | – | – | – | – | –
OCl [Bleach, sodium hypochlorite] | – | – | – | – | – | – | – | – | – | – | – | 0.16 | 0.96 | Total inhibition | 1.91 | Total inhibition | 3.03 | Total inhibition | Total inhibition
